The text below walks through data of US20250163038A1, “CBL-B MODULATORS AND USES THEREOF” (Nimbus Clio, Inc., priority 2021, published 2025).

Bounds are passed on as bounds.

Experiment [1] has as its target T1, Recombinant human c-Cbl (aa 47-435) (Homo sapiens, UniProt P22681).
T1 sequence (P22681 47-435): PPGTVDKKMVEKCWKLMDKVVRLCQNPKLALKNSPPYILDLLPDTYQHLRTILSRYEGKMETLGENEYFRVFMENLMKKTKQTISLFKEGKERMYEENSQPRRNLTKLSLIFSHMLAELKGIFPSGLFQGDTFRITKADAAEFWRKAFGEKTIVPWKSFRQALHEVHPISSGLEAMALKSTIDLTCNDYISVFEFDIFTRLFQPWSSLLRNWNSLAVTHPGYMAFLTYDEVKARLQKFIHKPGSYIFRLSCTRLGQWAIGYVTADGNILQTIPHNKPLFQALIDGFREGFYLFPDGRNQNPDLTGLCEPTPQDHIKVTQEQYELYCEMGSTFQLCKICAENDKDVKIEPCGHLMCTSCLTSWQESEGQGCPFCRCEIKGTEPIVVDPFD
Put plainly: c-Cbl Biochemical Assay (TR-FRET). To be noted: hc-Cbl Biochemical Assay (TR-FRET); read-out: TR-FRET hcCbl IC50. Background: In TR-FRET formats the signal depends on donor and acceptor labels being close together.

For experiment [2], the target named is Recombinant human Cbl-b (aa 36-427) (Homo sapiens, UniProt Q13191). The experiment is described as follows: Cbl-b Biochemical Assay (TR-FRET). Particulars: read-out: TR-FRET hCbl-b IC50.
Sequence of Recombinant human Cbl-b (aa 36-427) (Q13191 36-427): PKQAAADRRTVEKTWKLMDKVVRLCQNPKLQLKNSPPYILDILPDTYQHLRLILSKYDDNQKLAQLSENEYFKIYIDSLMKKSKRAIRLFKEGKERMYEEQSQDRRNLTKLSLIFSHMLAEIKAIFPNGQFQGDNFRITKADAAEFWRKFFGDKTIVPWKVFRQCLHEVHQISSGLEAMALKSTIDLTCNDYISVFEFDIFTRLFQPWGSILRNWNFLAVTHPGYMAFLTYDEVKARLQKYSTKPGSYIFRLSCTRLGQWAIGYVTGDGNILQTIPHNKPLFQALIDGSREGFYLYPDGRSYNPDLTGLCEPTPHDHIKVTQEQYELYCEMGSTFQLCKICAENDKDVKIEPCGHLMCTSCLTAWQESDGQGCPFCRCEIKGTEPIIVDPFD

For `Cn1cnnc1CC1(c2cccc(-c3nc4cc(Br)cc(C(F)(F)F)c4o3)c2)COC1` [AAK-1, 5-Bromo-2-(3-(3-((4-methyl-4H-1,2,4-triazol-3-yl)methyl)oxetan-3-yl)phenyl)-7-(trifluoromethyl)benzo[d]oxazole], the values for the IC50 in experiment [1] and in experiment [2] were 10 to 50 µM and 0.2 to 1 µM, respectively.
Consider `COC(=O)c1ccc2[nH]c(-c3cc(-c4ccc(F)cc4-c4nncn4C)cc(C4CC4)n3)nc2c1` [AED-3, Methyl 2-(6-cyclopropyl-4-(4-fluoro-2-(4-methyl-4H-1,2,4-triazol-3-yl)phenyl)pyridin-2-yl)-1H-benzo[d]imidazole-5-carboxylate], for which the IC50 in experiment [1] and in experiment [2] was 10 to 50 µM each time.
For the compound `Cn1cnnc1CC1(c2cccc(-c3nc4cccc(C(F)(F)F)c4o3)c2)COC1` [ACO-1, 2-(3-(3-((4-Methyl-4H-1,2,4-triazol-3-yl)methyl)oxetan-3-yl)phenyl)-7-(trifluoromethyl)benzo[d]oxazole], the IC50 (usually the point on the concentration scale where inhibition reaches its midpoint) is 10 to 50 µM in experiment [1] and 0.2 to 1 µM in experiment [2].
Take `Cn1cnnc1-c1cc(F)ccc1-c1cccc(-c2nc3cccc(C(F)(F)F)c3[nH]2)c1` [BI-1, 2-(4′-Fluoro-2′-(4-methyl-4H-1,2,4-triazol-3-yl)-[1,1′-biphenyl]-3-yl)-7-(trifluoromethyl)-1H-benzo[d]imidazole]: the IC50 in experiment [1] fell in the range of 10 to 50 µM; in experiment [2] it was 0.2 to 1 µM.
`Cn1cnnc1-c1cc(C#N)ccc1-c1cccc(-c2nc3cc(CO)cc(C(F)(F)F)c3[nH]2)c1` [BZ-1, 3′-(5-(Hydroxymethyl)-7-(trifluoromethyl)-1H-benzo[d]imidazol-2-yl)-2-(4-methyl-4H-1,2,4-triazol-3-yl)-[1,1′-biphenyl]-4-carbonitrile]: the IC50 in experiment [1] is 10 to 50 µM; in experiment [2], 1 to 10 µM.
As to `Cn1cnnc1CC1(c2cccc(-c3cc(C(F)(F)F)c[nH]c3=O)c2)COC1` [ABO-1, 3-(3-(3-((4-Methyl-4H-1,2,4-triazol-3-yl)methyl)oxetan-3-yl)phenyl)-5-(trifluoromethyl)pyridin-2(1H)-one], the concentration for half-maximal inhibition (IC50) lay within 10 to 50 µM in experiment [1] and 0.2 to 1 µM in experiment [2].
As to `Cn1cnnc1-c1ccccc1-c1cccc(-c2nc3cc(C(C)(C)O)cc(C(F)(F)F)c3o2)c1` [Example J-1, 2-(2-(2′-(4-Methyl-4H-1,2,4-triazol-3-yl)-[1,1′-biphenyl]-3-yl)-7-(trifluoromethyl)benzo[d]oxazol-5-yl)propan-2-ol], the IC50 in experiment [1] and in experiment [2] was 10 to 50 µM throughout.
In the case of `Cn1cnnc1-c1ccccc1-c1cccc(-c2nc3cc(CO)cc(C(F)(F)F)c3o2)c1` [Example F-5, (2-(2′-(4-Methyl-4H-1,2,4-triazol-3-yl)-[1,1′-biphenyl]-3-yl)-7-(trifluoromethyl)benzo[d]oxazol-5-yl)methanol], the IC50 was 10 to 50 µM in experiment [1] and 1 to 10 µM in experiment [2].
For `Cn1cnnc1CC1(c2cccc(-c3nc4cc(C(=O)N5CCCC5)cc(C(F)(F)F)c4[nH]3)c2)COC1` [ABH-4, (2-(3-(3-((4-Methyl-4H-1,2,4-triazol-3-yl)methyl)oxetan-3-yl)phenyl)-7-(trifluoromethyl)-1H-benzo[d]imidazol-5-yl)(pyrrolidin-1-yl)methanone], the IC50 in experiment [1] and in experiment [2] was 10 to 50 µM in each case.
In the case of `CCNc1cc(-c2c(-c3nncn3C)cnn2C)cc(-c2nc3cc(CN4CCC5(CC5)C4)cc(C(F)(F)F)c3[nH]2)n1` [AAM-2, 6-(6-{5-Azaspiro[2.4]heptan-5-ylmethyl}-4-(trifluoromethyl)-3H-1,3-benzodiazol-2-yl)-N-ethyl-4-[2-methyl-4-(4-methyl-1,2,4-triazol-3-yl)pyrazol-3-yl]pyridin-2-amine], the IC50 lay within 10 to 50 µM in experiment [1] and 1 to 10 µM in experiment [2].
For the compound `Cn1cnnc1CC1(c2cccc(-c3cc(C(F)(F)F)cn(C)c3=O)c2)COC1` [CF-2, 1-Methyl-3-(3-(3-((4-methyl-4H-1,2,4-triazol-3-yl)methyl)oxetan-3-yl)phenyl)-5-(trifluoromethyl)pyridin-2(1H)-one], the IC50 in experiment [1] and in experiment [2] was 10 to 50 µM throughout.
On to `Cn1cnnc1-c1cc(F)ccc1-c1cccc(-c2nc3cc(CO)ccc3[nH]2)c1` [BW-3, (2-(4′-Fluoro-2′-(4-methyl-4H-1,2,4-triazol-3-yl)-[1,1′-biphenyl]-3-yl)-1H-benzo[d]imidazol-5-yl)methanol], for which the IC50 in experiment [1] and in experiment [2] was 10 to 50 µM in each case.
On to `Cn1cnnc1-c1ccccc1-c1cccc(-c2nc3cccc(C(F)(F)F)c3o2)c1` [Example K-2, 2-(2′-(4-Methyl-4H-1,2,4-triazol-3-yl)-[1,1′-biphenyl]-3-yl)-7-(trifluoromethyl)benzo[d]oxazole], for which the IC50 in experiment [1] and in experiment [2] was 10 to 50 µM in each case.
Consider `Cn1cnnc1CC1(c2cccc(-c3nc4cccc(C(F)(F)F)c4s3)c2)COC1` [ABT-2, 2-(3-(3-((4-Methyl-4H-1,2,4-triazol-3-yl)methyl)oxetan-3-yl)phenyl)-7-(trifluoromethyl)benzo[d]thiazole], for which the IC50 in experiment [1] was in the range of 10 to 50 µM; in experiment [2] it was 1 to 10 µM.
For `COC(=O)c1cc(C(F)(F)F)c2oc(-c3cccc(-c4ccc(F)cc4-c4nncn4C)c3)nc2c1` [Example X-1, Methyl 2-(4′-fluoro-2′-(4-methyl-4H-1,2,4-triazol-3-yl)-[1,1′-biphenyl]-3-yl)-7-(trifluoromethyl)benzo[d]oxazole-5-carboxylate], in that order: 1 to 10 µM and 0.2 to 1 µM.
With `Cn1cnnc1-c1ccccc1-c1cccc(-c2nc3ccc(OCCN4CCCC4)c(C(F)(F)F)c3[nH]2)c1` [BG-1, 2-(2′-(4-Methyl-4H-1,2,4-triazol-3-yl)-[1,1′-biphenyl]-3-yl)-6-(2-(pyrrolidine-1-yl)ethoxy)-7-(trifluoromethyl)-1H-benzo[d]imidazole], the IC50 in experiment [1] and in experiment [2] was 10 to 50 µM each time.
For the compound `Cn1cnnc1CC1(c2cccc(-c3nc4cc(C(=O)N5CC[C@H](O)C5)cc(C(F)(F)F)c4[nH]3)c2)COC1` [ABR-2, (S)-(3-Hydroxypyrrolidin-1-yl)(2-(3-(3-((4-methyl-4H-1,2,4-triazol-3-yl)methyl)oxetan-3-yl)phenyl)-7-(trifluoromethyl)-1H-benzo[d]imidazol-5-yl)methanone], the IC50 was 1 to 10 µM in experiment [1] and less than 0.2 µM in experiment [2].
Take `CCNc1cc(-c2c(-c3nncn3C)cnn2C)cc(-c2nc3cc(CN4CCC5(CC5)C4)cc(C(F)(F)F)c3o2)n1` [AAC-5, 6-(5-{5-Azaspiro[2.4]heptan-5-ylmethyl}-7-(trifluoromethyl)-1,3-benzoxazol-2-yl)-N-ethyl-4-[2-methyl-4-(4-methyl-1,2,4-triazol-3-yl)pyrazol-3-yl]pyridin-2-amine]: the IC50 in experiment [1] lay within 10 to 50 µM; in experiment [2], 1 to 10 µM.
For `C[C@@H]1CCCN(Cc2cc(C(F)(F)F)c3[nH]c(-c4cccc(-c5ccccc5-c5nncn5C)c4)nc3c2)C1` [AAJ-1, 2-[2′-(4-Methyl-1,2,4-triazol-3-yl)-[1,1′-biphenyl]-3-yl]-6-{[(3R)-3-methylpiperidin-1-yl]methyl}-4-(trifluoromethyl)-3H-1,3-benzodiazole], in that order: 10 to 50 µM and 1 to 10 µM.
For `Cn1cnnc1CC1(c2cccc(-c3cc(C(F)(F)F)cn(CCO)c3=O)c2)COC1` [ACG-3, 1-(2-Hydroxyethyl)-3-(3-(3-((4-methyl-4H-1,2,4-triazol-3-yl)methyl)oxetan-3-yl)phenyl)-5-(trifluoromethyl)pyridin-2(1H)-one], the IC50 fell in the range of 10 to 50 µM in experiment [1] and 0.2 to 1 µM in experiment [2].
For `Cn1cnnc1-c1cc(F)ccc1-c1cccc(-c2nc3ccc(CO)cc3o2)c1` [DC-3, (2-(4′-Fluoro-2′-(4-methyl-4H-1,2,4-triazol-3-yl)-[1,1′-biphenyl]-3-yl)benzo[d]oxazol-6-yl)methanol], in that order: 10 to 50 µM and 1 to 10 µM.
For the compound `CC(=O)c1cc(C(F)(F)F)c2oc(-c3cccc(-c4ccc(F)cc4-c4nncn4C)c3)nc2c1` [DK-1, 1-(2-(4′-Fluoro-2′-(4-methyl-4H-1,2,4-triazol-3-yl)-[1,1′-biphenyl]-3-yl)-7-(trifluoromethyl)benzo[d]oxazol-5-yl)ethan-1-one], the IC50 was 1 to 10 µM in experiment [1] and less than 0.2 µM in experiment [2].
As for `Cn1cnnc1[C@]1(c2cccc(-c3nc4cc(CO)cc(C(F)(F)F)c4o3)c2)C[C@H](C)C1` [ADD-1, (2-(3-((1s,3s)-3-Methyl-1-(4-methyl-4H-1,2,4-triazol-3-yl)cyclobutyl)phenyl)-7-(trifluoromethyl)benzo[d]oxazol-5-yl)methanol], the IC50 lay within 1 to 10 µM in experiment [1] and 0.2 to 1 µM in experiment [2].
As for `Cn1cnnc1-c1cnn(C)c1-c1cccc(-c2nc3cc(CN[C@H]4CCC[C@@H]4O)cc(C(F)(F)F)c3o2)c1` [AAU-6, (1S,2S)-2-(((2-(3-(1-Methyl-4-(4-methyl-4H-1,2,4-triazol-3-yl)-1H-pyrazol-5-yl)phenyl)-7-(trifluoromethyl)benzo[d]oxazol-5-yl)methyl)amino)cyclopentan-1-ol], the IC50 in experiment [1] was in the range of 10 to 50 µM; in experiment [2], 0.2 to 1 µM.
For `Cn1cnnc1-c1cc(C#N)ccc1-c1cccc(-c2nc3cccc(C(F)(F)F)c3o2)c1` [AU-1, 2-(4-Methyl-4H-1,2,4-triazol-3-yl)-3′-(7-(trifluoromethyl)benzo[d]oxazol-2-yl)-[1,1′-biphenyl]-4-carbonitrile], the IC50 in experiment [1] was 10 to 50 µM; in experiment [2], 0.2 to 1 µM.
